Source: PMC10272180, “Ancient medicinal plant rosemary contains a highly efficacious and isoform-selective KCNQ potassium channel opener” (Communications Biology, 2023)

Assays:
KCNQ3*-R243A = KCNQ3*-R243A (Homo sapiens, UniProt O43525, A315T/R243A); assay: TEVC of mutant KCNQ3*-R243A in oocytes; type: cell-based; conditions: 100 µM
Source text: (§1) We generated cRNA transcripts encoding human KCNQ1, 2, 3, and 5 (wild-type and mutant) by in vitro transcription using the mMessage mMachine kit (Thermo Fisher Scientific, Waltham, MA, USA) according to manufacturer’s instructions, after vector linearization, from cDNA sub-cloned into expression vectors (pTLNx and pXOOM) incorporating Xenopus laevis β-globin 5’ and 3’ UTRs flanking the coding region to enhance translation and cRNA stability. Mutant KCNQ cDNAs were generated by Genscript (Piscataway, NJ, USA) and cRNAs made as above. We injected defolliculated stage V and VI Xenopus laevis oocytes (Xenoocyte, Dexter, MI, USA) with KCNQ cRNAs (2–10 ng) and incubated the oocytes at 16 °C in ND96 oocyte storage solution containing penicillin and streptomycin, with daily washing, for 2–4 days prior to two-electrode voltage-clamp (TEVC) recording.
We performed TEVC at room temperature using an OC-725C amplifier (Warner Instruments, Hamden, CT, USA) and pClamp10 software (Molecular Devices, Sunnyvale, CA, USA) 2–4 days after cRNA injection. […] We recorded currents in response to voltage pulses between −120 mV and +40 mV at 10 mV intervals from a holding potential of −80 mV, to yield current-voltage relationships and examine activation kinetics. We analyzed data using Clampfit (Molecular Devices) and Graphpad Prism software (GraphPad, San Diego, CA, USA), stating values as mean ± SEM. […]

KCNQ3* (KCNQ3-A315T) = KCNQ3* (KCNQ3-A315T) (Homo sapiens, UniProt O43525, A315T); assay: TEVC of KCNQ3* homomers expressed in Xenopus laevis oocytes; type: cell-based
KCNQ2/3 = target: T1, KCNQ2/3 (Homo sapiens, UniProt O43525+O43526); assay: TEVC of KCNQ2/3 heteromers expressed in Xenopus laevis oocytes; type: cell-based
T1 construct: expressed in transfected cells; host or cells: Xenopus laevis oocytes co-injected with cRNAs
Source text: as §1
We placed oocytes in a small-volume oocyte bath (Warner) and viewed them with a dissection microscope for cellular electrophysiology. We sourced chemicals from Sigma-Aldrich (St. Louis, MO, USA) and Combi-Blocks (San Diego, CA, USA). We studied effects of Salvia rosmarinus extracts and of compounds, solubilized directly in bath solution (in mM): 96 NaCl, 4 KCl, 1 MgCl2, 1 CaCl2, 10 HEPES (pH 7.6). We introduced extracts or compounds into the oocyte recording bath by gravity perfusion at a constant flow of 1 ml per minute for 3 min prior to recording. Pipettes were of 1-2 MΩ resistance when filled with 3 M KCl. […] We analyzed data using Clampfit (Molecular Devices) and Graphpad Prism software (GraphPad, San Diego, CA, USA), stating values as mean ± SEM. We plotted raw or normalized tail currents versus prepulse voltage and fitted with a single Boltzmann function:1 g=(A1−A2)/1+exp[V1/2−V/Vs]y+A2 where g is the normalized tail conductance, A1 is the initial value at -∞, A2 is the final value at +∞, V1/2 is the half-maximal voltage of activation and Vs the slope factor. We fitted activation and deactivation kinetics with single exponential functions.

mice = conditions: acute toxicity; cited from earlier work
KCNQ5 = KCNQ5 (Homo sapiens, UniProt Q9NR82); assay: TEVC of KCNQ5 homomers expressed in Xenopus laevis oocytes; type: cell-based
Source text: as §1
(§2) We performed TEVC at room temperature using an OC-725C amplifier (Warner Instruments, Hamden, CT, USA) and pClamp10 software (Molecular Devices, Sunnyvale, CA, USA) 2–4 days after cRNA injection. We placed oocytes in a small-volume oocyte bath (Warner) and viewed them with a dissection microscope for cellular electrophysiology. We sourced chemicals from Sigma-Aldrich (St. Louis, MO, USA) and Combi-Blocks (San Diego, CA, USA). We studied effects of Salvia rosmarinus extracts and of compounds, solubilized directly in bath solution (in mM): 96 NaCl, 4 KCl, 1 MgCl2, 1 CaCl2, 10 HEPES (pH 7.6). We introduced extracts or compounds into the oocyte recording bath by gravity perfusion at a constant flow of 1 ml per minute for 3 min prior to recording. Pipettes were of 1-2 MΩ resistance when filled with 3 M KCl. We recorded currents in response to voltage pulses between −120 mV and +40 mV at 10 mV intervals from a holding potential of −80 mV, to yield current-voltage relationships and examine activation kinetics. We analyzed data using Clampfit (Molecular Devices) and Graphpad Prism software (GraphPad, San Diego, CA, USA), stating values as mean ± SEM. We plotted raw or normalized tail currents versus prepulse voltage and fitted with a single Boltzmann function:1 g=(A1−A2)/1+exp[V1/2−V/Vs]y+A2 where g is the normalized tail conductance, A1 is the initial value at -∞, A2 is the final value at +∞, V1/2 is the half-maximal voltage of activation and Vs the slope factor. We fitted activation and deactivation kinetics with single exponential functions.

KCNQ3*-M240A = KCNQ3*-M240A (Homo sapiens, UniProt O43525, A315T/M240A); assay: TEVC of mutant KCNQ3*-M240A in oocytes; type: cell-based; conditions: 100 µM
Source text: as §1
as §2, with “We plotted raw or normalized tail currents versus prepulse voltage and fitted with a single Boltzmann function:1 g=(A1−A2)/1+exp[V1/2−V/Vs]y+A2 where g is the normalized tail conductance, A1 is the initial value at -∞, A2 is the final value at +∞, V1/2 is the half-maximal voltage of activation and Vs the slope factor. We fitted activation and deactivation kinetics with single exponential functions.” left out

[1] = 5 µM, post 3 hrs. incubation 30 µM Wortmannin

Chain of KCNQ3* (KCNQ3-A315T) (O43525 whole entry A315T): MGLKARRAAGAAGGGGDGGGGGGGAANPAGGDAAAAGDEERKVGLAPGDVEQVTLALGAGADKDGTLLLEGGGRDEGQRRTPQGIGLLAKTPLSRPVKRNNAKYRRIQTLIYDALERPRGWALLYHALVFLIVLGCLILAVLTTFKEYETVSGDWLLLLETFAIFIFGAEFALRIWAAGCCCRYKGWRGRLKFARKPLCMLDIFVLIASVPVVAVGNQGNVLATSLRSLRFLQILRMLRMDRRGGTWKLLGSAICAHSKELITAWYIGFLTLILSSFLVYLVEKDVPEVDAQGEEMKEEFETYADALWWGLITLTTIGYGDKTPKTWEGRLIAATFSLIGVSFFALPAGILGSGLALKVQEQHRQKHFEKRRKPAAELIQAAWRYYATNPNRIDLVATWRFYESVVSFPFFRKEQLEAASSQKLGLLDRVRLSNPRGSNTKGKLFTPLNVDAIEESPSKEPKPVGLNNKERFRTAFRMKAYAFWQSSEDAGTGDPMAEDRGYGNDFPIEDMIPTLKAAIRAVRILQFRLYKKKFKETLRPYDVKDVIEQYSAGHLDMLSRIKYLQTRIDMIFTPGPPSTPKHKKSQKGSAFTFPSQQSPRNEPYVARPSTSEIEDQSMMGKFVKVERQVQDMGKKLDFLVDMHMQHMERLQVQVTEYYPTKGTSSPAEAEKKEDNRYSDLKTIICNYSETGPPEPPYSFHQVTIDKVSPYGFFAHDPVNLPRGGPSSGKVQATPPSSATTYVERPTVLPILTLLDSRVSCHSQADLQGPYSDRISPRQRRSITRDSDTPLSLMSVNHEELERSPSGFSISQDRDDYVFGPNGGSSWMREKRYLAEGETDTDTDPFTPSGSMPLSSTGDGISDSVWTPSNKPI

CC(C)c1cc2c(c(O)c1O)[C@@]1(C(=O)O)CCCC(C)(C)[C@@H]1CC2 [Carnosic acid, carnosic acid]
Slope (KCNQ3*-R243A): 9.48 ± 0.54 mV
V0.5 Normalized tail current (KCNQ3*-R243A): -64.93 ± 0.61 mV
V0.5 Normalized tail current (KCNQ3* (KCNQ3-A315T); 0.1 µM): -55.21 ± 0.45 mV
V0.5 Normalized tail current (KCNQ3* (KCNQ3-A315T); 1 µM): -59.60 ± 0.47 mV
V0.5 Normalized tail current (KCNQ3* (KCNQ3-A315T); 3 µM): -63.92 ± 0.74 mV
slowing of deactivation rate (KCNQ3* (KCNQ3-A315T); 3 µM, at −120 mV): > fourfold
change of activation rate (KCNQ3* (KCNQ3-A315T); 3 µM, voltage-independent): doubled
Slope (KCNQ3* (KCNQ3-A315T); 5 µM): 7.61 ± 0.94 mV
V0.5 Normalized tail current (KCNQ3* (KCNQ3-A315T); 5 µM): -63.93 ± 1.08 mV
Slope (KCNQ3* (KCNQ3-A315T); [1]): 6.70 ± 0.56 mV
V0.5 Normalized tail current (KCNQ3* (KCNQ3-A315T); [1]): -46.82 ± 0.64 mV
time to saturation of current potentiation upon wash-in (KCNQ3* (KCNQ3-A315T); 5 µM, −60 mV): around 150 s
V0.5 Normalized tail current (KCNQ3* (KCNQ3-A315T); 10 µM): -73.28 ± 1.41 mV
V0.5 Normalized tail current (KCNQ3* (KCNQ3-A315T); 30 µM): -92.58 ± 2.21 mV
Slope (KCNQ3* (KCNQ3-A315T); 100 µM): 9.91 ± 0.62 mV
V0.5 non-normalized tail current (KCNQ3* (KCNQ3-A315T); 100 µM): -111.1 ± 5.75 mV
effect on EM of unclamped oocytes (KCNQ3* (KCNQ3-A315T); 100 µM (hesperidin 30 µM)): hyperpolarized
EC50 (KCNQ3* (KCNQ3-A315T); EC50 EM, EM of unclamped oocytes): 1.19 ± 0.19 µM
EC50 (KCNQ3* (KCNQ3-A315T); EC50 Fold change -60 mV, current increase at −60 mV): 5.43 ± 0.37 µM
EC50 (KCNQ3* (KCNQ3-A315T); EC50 V0.5 Activation, ΔV0.5act): 18 ± 0.72 µM
V0.5 Normalized tail current (KCNQ2/3; 0.1 µM): -44.63 ± 0.46 mV
V0.5 Normalized tail current (KCNQ2/3; 1 µM): -45.44 ± 0.41 mV
V0.5 Normalized tail current (KCNQ2/3; 3 µM): -46.40 ± 0.45 mV
V0.5 Normalized tail current (KCNQ2/3; 10 µM): -47.94 ± 0.61 mV
V0.5 Normalized tail current (KCNQ2/3; 30 µM): -49.09 ± 0.55 mV
V0.5 Normalized tail current (KCNQ2/3; 100 µM): -49.95 ± 0.65 mV
activity across the concentration range tested (KCNQ2/3; 0.1-100 µM): only weakly active
oral LD50 (mice): 7100 mg/kg
V0.5 Normalized tail current (KCNQ5; 0.1 µM): -42.57 ± 0.34 mV
V0.5 Normalized tail current (KCNQ5; 1 µM): -42.20 ± 0.27 mV
V0.5 Normalized tail current (KCNQ5; 3 µM): -42.54 ± 0.31 mV
V0.5 Normalized tail current (KCNQ5; 10 µM): -43.64 ± 0.36 mV
V0.5 Normalized tail current (KCNQ5; 30 µM): -45.91 ± 0.40 mV
V0.5 Normalized tail current (KCNQ5; 100 µM): -50.99 ± 0.49 mV
constitutively activated current at −120 mV (KCNQ5; 100 µM): ~ 5%
EC50 (KCNQ5; EC50 EM): 43.4 ± 0.28 µM
EC50 (KCNQ5; EC50 V0.5 Activation): 231 ± 75 µM
Slope (KCNQ3*-M240A): 17.31 ± 1.56 mV
V0.5 Normalized tail current (KCNQ3*-M240A): -66.81 ± 1.80 mV
constitutive current at −120 mV (KCNQ3*-M240A): 20%
